For one data set, the target named is T1, human NTCP (Homo sapiens, UniProt Q14973).
T1 construct: made in house; host or cells: wheat germ cell-free protein synthesis system
T1 sequence (Q14973 1-349): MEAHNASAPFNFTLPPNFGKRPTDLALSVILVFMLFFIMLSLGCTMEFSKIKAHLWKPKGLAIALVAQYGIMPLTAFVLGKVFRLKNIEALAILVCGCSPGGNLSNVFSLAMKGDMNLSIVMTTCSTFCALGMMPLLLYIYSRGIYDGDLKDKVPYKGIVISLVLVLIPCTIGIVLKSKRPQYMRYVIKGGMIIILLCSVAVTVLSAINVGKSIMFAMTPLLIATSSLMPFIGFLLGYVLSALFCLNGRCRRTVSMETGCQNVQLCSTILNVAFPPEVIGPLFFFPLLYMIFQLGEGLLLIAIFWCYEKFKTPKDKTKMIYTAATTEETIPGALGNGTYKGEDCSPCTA
Put plainly: Surface plasmon resonance binding to immobilized recombinant NTCP. The note with it: single-cycle kinetics, 1:1 binding model, NTCP immobilized on NTA-Ni2+, read-out: Kd. On the procedure: FIG. 7 is a diagram showing the NTCP association constant of a peptide identified by first RaPID screening. A single-cycle reaction kinetics experiment was conducted using NTCP immobilized on surface (NTA-Ni^2+) involving varying concentrations of a cyclic peptide analyte. In each case, as shown in the drawing, the peptide was tested with 4-fold serial dilutions starting from the highest concentration of 200 or 1000 nM. A dissociation constant (KD) was determined using a 1:1 binding model.
FIG. 9 is a diagram showing the NTCP association constant of a peptide identified by focused library RaPID screening. A single-cycle association constant experiment was conducted using NTCP immobilized on surface (NTA-Ni^2+) involving varying concentrations of a cyclic peptide analyte. In each case, as shown in the drawing, the peptide was tested with 4-fold serial dilutions starting from the highest concentration of 200 or 1000 nM. A dissociation constant (KD) was determined using a 1:1 binding model.
The association constant of each peptide for human NTCP was measured using a Biacore T200 apparatus (GE Healthcare Japan Corp.). The running buffer solution used was HBS-P+ (10 mM HEPES, 150 mM NaCl, and 0.05 vol % surfactant P20, pH 7.4) containing 0.1 vol % DMSO and 1 mM β-dodecyl-maltoside. 100 nM recombinant NTCP was immobilized on a NTA chip treated with Ni^2+ according to the manufacturer's instructions (baseline response: 1000 to 3000 refraction units). Peptides were injected as analytes at a flow rate of 60 μL/min, and association constants were modelled using a 1:1 binding model.
For orientation: SPR reads the build-up and loss of mass on a sensor chip optically.

The subject of data set [1] is HBV genotype D. In kind it is cell-based, hepatitis B virus. The note with it: primary human hepatocytes, purified HBV as inoculum, HBs antigen in culture supernatant; read-out: 50% inhibitory concentrations (IC50), HBs antigen. How it is done: FIG. 2 is a diagram showing the anti-HBV effect of a peptide from initial screening. FIG. 2(a) is a schematic diagram of a HepG2-hNTCP-C4 infection experiment. HepG2-hNTCP-C4 cells were pretreated with a peptide for 2 hours and subsequently inoculated with HBV for 16 hours in the presence of the peptide. Free HBV and peptide were washed off. Then, the cells were further cultured for 12 days in the absence of the peptide, and HBV infection was evaluated on the basis of measurement of HBs antigen in the culture supernatant. The filled boxes and the broken-line boxes depict periods for which the treatment was performed and periods for which the treatment was not performed, respectively. […] HBV infection was evaluated by monitoring HBs antigen secreted into a culture supernatant on 12 days after inoculation by ELISA. In FIG. 2(c), a cell survival rate was measured by MTT assay.
FIG. 3 is a diagram showing the anti-HBV effect of a peptide by focused library screening. […] HBV infection was evaluated by measurement of HBe antigen (a), and a cell survival rate (b) was evaluated by MTT assay as shown in FIG. 2.
HBV genotype D used in this study (FIGS. 1 to 3) was derived from the culture supernatant of Hep38.7-Tet cells, and prepared by a known method (the method described in Tsukuda, S. et al. Dysregulation of retinoic acid receptor diminishes hepatocyte permissiveness to hepatitis B virus infection through modulation of sodium taurocholate cotransporting polypeptide (NTCP) expression. The Journal of biological chemistry 290, 5673-5684 (2015), and Ogura, N., Watashi, K., Noguchi, T. & Wakita, T. Formation of covalently closed circular DNA in Hep38.7-Tet cells, a tetracycline inducible hepatitis B virus expression cell line. Biochemical and biophysical research communications 452, 315-321 (2014)). Purified HBV (FIG. 1(d)) was prepared by ultrafiltration to remove an excess of components in FBS and medium. HBV genotypes A, B, and C and genotype C having the L180M/S202G/M204V mutations (nucleoside analog-resistant HBV) or G145R substitution (vaccine-escape HBV) (FIG. 4(d)) were prepared from the culture supernatant of HepG2 cells transfected with the corresponding expression plasmid. HBV was inoculated at 12,000 (FIGS. 1(a), 1(b), and 1(d)), 1000 to 2000 (FIG. 2(b)) or 500 (FIGS. 3(a) and 4(d)) genome equivalents (GEq)/cell in the presence of 4% polyethylene glycol 8000 (PEG8000) and incubated at 37° C. for 16 hours by a known method (the method described in Watashi, K. et al. Interleukin-1 and tumor necrosis factor-alpha trigger restriction of hepatitis B virus infection via a cytidine deaminase activation-induced cytidine deaminase (AID). The Journal of biological chemistry 288, 31715-31727 (2013)).
HBe antigen was detected by a chemiluminescence immunoassay (CLIA) (LSI Medience Corp.). HBs antigen was quantified by enzyme-linked immunosorbent assay (ELISA) as described in a known method (the method described in Watashi, K. et al. Interleukin-1 and tumor necrosis factor-alpha trigger restriction of hepatitis B virus infection via a cytidine deaminase activation-induced cytidine deaminase (AID). The Journal of biological chemistry 288, 31715-31727 (2013)).
Subsequently, the present inventors evaluated the effect of the 10 peptides described above on HBV infection in primary human hepatocytes. […] HBV infection was evaluated by measuring HBs antigen in the culture supernatant. […]

The subject of the next data set is HepG2-hNTCP-C4 cells. The note with it: HBV infection assay.
Data set [2] relates to HBV genotype D. In words: HBV infection assay in HepG2-hNTCP-C4 cells (HBs and HBc antigens). In kind it is cell-based, hepatitis B virus. The note with it: 100 nM entecavir.
Protocol: HBs antigen secreted into a culture supernatant (a) and HBc antigen in the cells (b) were detected by ELISA and an immunofluorescence method, respectively. A cell survival rate was measured by quantifying total cellular DNA (c). The staining images of (b) each show the HBc antigen and the nucleus. […] HBs antigen secreted into a culture supernatant was detected by ELISA. Data is indicated by mean±SD. Statistical significance was determined by use of Student's t test as to all numbers (*P<0.05, **P<0.01, N.S.: not significant). […]
HBs antigen was quantified by enzyme-linked immunosorbent assay (ELISA) as described in a known method (the method described in Watashi, K. et al. Interleukin-1 and tumor necrosis factor-alpha trigger restriction of hepatitis B virus infection via a cytidine deaminase activation-induced cytidine deaminase (AID). The Journal of biological chemistry 288, 31715-31727 (2013)). […]
After HBV inoculation, HBs antigen was measured in a culture supernatant, and HBc antigen was evaluated in the cells to confirm HBV infection, as shown in FIG. 2(a).
Data set [3] deals with human NTCP on cells (HepG2-hNTCP-C4 cells overexpressing the human NTCP gene; primary human hepatocytes) (human) (UniProt Q14973). Put plainly: cell-based or functional assay.

Converted amounts (≈) assume the structure as drawn. Where a SMILES comes first, the peptide text is derived from it. Bridges are numbered along the chain shown (N, C = ends). [ ]: non-standard residue; d: D form. Sar = CNCC(=O)O

The values below come from patent US20210061859A1, “NTCP Inhibitor” (The University of Tokyo, priority 2018, published 2021).

As usually defined, the Kd is a measure of binding affinity in units of concentration. What is called solubility is the dissolved amount per volume that the medium holds. A low value points to a poorly soluble substance. `CC[C@H](C)[C@@H]1NC(=O)[C@H](Cc2ccccc2)NC(=O)[C@@H](Cc2ccc(O)cc2)NC(=O)CSC[C@@H](C(=O)N[C@H](C(N)=O)[C@@H](C)O)NC(=O)[C@H](CO)NC(=O)[C@H](Cc2c[nH]c3ccccc23)NC(=O)[C@H]([C@@H](C)O)NC(=O)[C@H](Cc2c[nH]c3ccccc23)NC(=O)[C@H]([C@@H](C)O)NC(=O)[C@H](Cc2c[nH]c3ccccc23)NC(=O)[C@H]([C@@H](C)O)NC(=O)CN(C)C(=O)[C@H](C(C)C)NC(=O)[C@H]([C@@H](C)CC)NC1=O` [WD1] ({CH2CO}-[dY]FIIV[Sar]TWTWTWSCT-NH2; thioether N-14) gave a solubility of around 30 µM (≈ 57.5 µg/mL). Moreover, the Kd on human NTCP is 15 nM. For the same compound, the IC50 in the data set with HBV genotype D [1] was determined as 850 ± 10 nM. Further, the “cytotoxicity (cell survival rate, total cellular DNA)” value (from here on “cytotoxicity”) in the data set on HepG2-hNTCP-C4 cells was “without marked cytotoxicity”.

`CC[C@H](C)[C@@H]1NC(=O)[C@H](Cc2ccc(O)cc2)NC(=O)CSC[C@@H](C(=O)N[C@H](C(N)=O)[C@@H](C)O)NC(=O)[C@H](Cc2ccc(O)cc2)NC(=O)[C@H]([C@@H](C)CC)NC(=O)[C@H](C(C)C)NC(=O)[C@H](Cc2ccc(O)cc2)NC(=O)CNC(=O)[C@@H]2CCCN2C(=O)[C@H](Cc2c[nH]c3ccccc23)NC(=O)[C@H]([C@@H](C)CC)NC(=O)[C@H](Cc2c[nH]c3ccccc23)NC1=O` [WL2] ({CH2CO}-YIWIWPGYVIYCT-NH2; thioether N-12): the solubility was around 30 µM (≈ 51.5 µg/mL). Besides, on human NTCP, the Kd turned out to be 157 nM. In the data set on HBV genotype D [1], the IC50 was found to be 2540 ± 110 nM. In addition, the “cytotoxicity” value in the data set with HepG2-hNTCP-C4 cells is “without marked cytotoxicity”.

As to `CC[C@H](C)[C@@H]1NC(=O)[C@H](Cc2c[nH]c3ccccc23)NC(=O)[C@H]([C@@H](C)CC)NC(=O)[C@H](C(C)C)NC(=O)[C@H](Cc2ccc(O)cc2)NC(=O)CSC[C@@H](C(=O)N[C@H](C(N)=O)[C@@H](C)O)NC(=O)[C@H](Cc2ccc(O)cc2)NC(=O)[C@H](Cc2ccc(O)cc2)NC(=O)[C@H](Cc2ccccc2)NC(=O)[C@H](Cc2c[nH]cn2)NC(=O)[C@H](CC(N)=O)NC(=O)[C@@H]2CCCN2C(=O)[C@H](Cc2c[nH]c3ccccc23)NC1=O` [WL4] ({CH2CO}-YVIWIWPNHFYYCT-NH2; thioether N-13), the solubility is around 30 µM (≈ 58.3 µg/mL). For the same compound, the Kd at human NTCP amounted to 42 nM. The IC50 with HBV genotype D [1] was determined as 660 ± 30 nM. Further, the “cytotoxicity” value with HepG2-hNTCP-C4 cells was “without marked cytotoxicity”.

For the compound `C=C1[C@H](CO)[C@@H](O)C[C@@H]1n1cnc2c(=O)[nH]c(N)nc21` [entecavir], in the data set with HBV genotype D [2], the “HBV infection monitored by HBc antigen” value was “did not exhibit a significant reduction” and the “HBV infection monitored by HBs antigen” value was “did not exhibit a significant reduction”.

Compound cyclosporin A (peptide) came in with a 50% inhibitory concentration (IC50), HBs antigen in culture supernatant, HBV infection assay in data set [3] of 3170 nM.
